One may read the IC50 as the midpoint of a concentration-inhibition curve.

The source made the active and inactive calls. The rule behind the calls is not given here. Where only a bound is given, the exact number is not on record here.

The source of these data is PubChem BioAssay AID2823 (Broad Institute, 2010).

For this assay, the target named is RanGTP-importin-beta complex (human Ran / KPNB1). Description: Ran–importin-beta interaction inhibitors, confirmation, biochemical, FRET, CFP/YFP, cell-free homogeneous (AID 2823). The note with it: CFP-Ran/YFP-importin-beta FRET ratio.
As for `CCN(CC)C(=O)Oc1ccc2c(c1)O/C(=C\c1ccco1)C2=O`, the IC50 was 7.92 µM.
On to `COC(=O)C1=CN(Cc2ccc(OC)cc2)C=C(C(=O)OC)C1c1ccc(O)c(OC)c1`, for which the IC50 was > 50 µM (inactive).
As for `Cc1sc(NC(=O)c2oc3ccccc3c2C)c(C#N)c1C`, the figure is > 50 µM (inactive); as for `Cc1cc(C(=O)O)ccc1-c1ccc(/C=C2\NC(=O)N(Cc3ccccc3Cl)C2=O)o1`, 10.7 µM.
For `Cc1ccc(OCC(=O)c2cc(C)n(CC(F)(F)F)c2C)c([N+](=O)[O-])n1`, the IC50 was > 50 µM (inactive).
As for `CC(CC(F)(F)F)N1CCC(n2nccc2NC(=O)CCOc2ccccc2)CC1` (stereo unspecified), the figure is > 50 µM (inactive); as for `C=CCn1c(SCCOc2ccc(OC)cc2)nnc1C(CO)NC(=O)c1ccc(OC)cc1` (stereo unspecified), > 50 µM (inactive).
For the molecule `N#Cc1c(/N=C/c2ccc(O)cc2O)sc2c1C1CCN2CC1`, the IC50 was > 50 µM (inactive).
In the case of `COC(=O)Cc1c(C)c2ccc(O)c(CNCc3ccc(OC)c(OC)c3)c2oc1=O`, the concentration for half-maximal inhibition (IC50) was 6.13 µM.
As for `CCCOc1ccc(Cn2ccnc2)cc1[N+](=O)[O-]`, the figure is > 50 µM (inactive); as for `Cc1ccc(-c2nc3cc(N)ccc3o2)cc1`, > 50 µM (inactive).
As for `COc1ccc(CCNC(=O)c2cc3c(=O)n4cccc(C)c4nc3n(CCCN3CCOCC3)c2=N)cc1`, the figure is 4.87 µM.
In the case of `COc1ccc(S(=O)Cc2ccc(C(=O)NC3CC3)o2)cc1` (stereo unspecified), the IC50 was > 50 µM (inactive).
As for `Cc1ccc(Cl)cc1-n1c(=O)cc(N2CC(C)OC(C)C2)[nH]c1=O` (stereo unspecified), the figure is > 50 µM (inactive).
As for `Cc1nnc(Sc2nc3c(c(=O)n(C)c(=O)n3C)n2Cc2ccccc2Cl)s1`, the figure is > 50 µM (inactive); as for `O=C(c1cc2ccccc2oc1=O)N1CCN(CCc2ccccc2)CC1`, 6.7 µM; as for `COc1ccccc1C(=O)NC(=S)Nc1ccc(N2CCCC2)cc1`, > 50 µM (inactive).
`Cc1nc2[nH]c(=O)c3c(n2n1)NC1=C(C(=O)CC(C)(C)C1)C3c1ccccc1` (stereo unspecified): the IC50 was 3.37 µM.
On to `CCN(CC)Cc1c(CC(C)C)oc(C)c1C(=O)O`, for which the IC50 was > 50 µM (inactive).
In the case of `Cn1c(N/N=C/c2cc3ccccc3nc2Cl)nc2ccccc21`, the IC50 is > 120 µM (inactive).
For the molecule `CC1=C(C(=O)OC(C)C)C(c2cccnc2)C2=C(CC(C)(C)CC2=O)N1` (stereo unspecified), the IC50 was 20.5 µM.
In the case of `CC(C)SCC(=O)Nc1ncc2c(n1)-c1ccccc1CC2`, the IC50 is 10.1 µM.
As for `Cc1cccn2c(=O)c(/C=C(\C#N)C(N)=O)c(Oc3ccccc3)nc12`, the figure is 1.96 µM; as for `CCN(CC)Cc1c(O)c(Cl)cc2c3c(c(=O)oc12)CCCC3`, 20.6 µM.
Turning to `Cc1nn(C(=O)c2ccco2)c(C)c1CN1C(=O)c2ccccc2C1=O`, the IC50 was > 50 µM (inactive).
For the molecule `CC(=O)c1sc2nc(C)c3c(c2c1N)CCCC3`, the IC50 was 15.3 µM.
For `Cc1ccc(Nc2nc(N)[nH]c(=O)c2N=O)cc1`, the IC50 was 16.1 µM.
`O=C(Nc1ccccc1-c1ccccc1)c1cccs1`: the IC50 was > 50 µM (inactive).
As for `O=c1c2ccccc2sc2ccc(C#CC3(O)CCCCC3)cc12`, the figure is 23.1 µM; as for `C=CCn1c(SCC(=O)Nc2sccc2C(N)=O)nc2ccccc2c1=O`, > 50 µM (inactive); as for `CC(C)(C)Nc1c2ccccc2nc2ccccc12`, > 50 µM (inactive).
For the molecule `CC1(C)CC(=O)NC=C(c2ccccc2)C1`, the IC50 was > 50 µM (inactive).
As for `CNS(=O)(=O)c1cc(OC)c(OC)cc1CC(=O)OC`, the figure is > 50 µM (inactive).
For `CCc1ccc(C(=O)CSc2ncn[nH]2)cc1`, the IC50 is > 50 µM (inactive).
For the molecule `CN(C)c1nc(-c2ccccc2)cc(C(F)(F)F)c1C#N`, the IC50 is 10.7 µM.
In the case of `CCC(C)OC(=O)C[N+](C)(C)CCOC1CC2CCC1(C)C2(C)C` (stereo unspecified), the IC50 is > 50 µM (inactive).
As for `CCOC(=O)c1ccc(NC(=O)CSc2nnc(C3CCCCC3)n2C)cc1`, the figure is > 50 µM (inactive).
Turning to `CC(C)c1ccccc1NC(=O)C1C2C=CC(C2)C1C(=O)O` (stereo unspecified), the IC50 was > 50 µM (inactive).
On to `CCc1ccc(CNc2ccc3c(c2)ncn3CC)cc1`, for which the IC50 was > 50 µM (inactive).
Turning to `COC(=O)C1=CN(CC2CCCO2)C=C(C(=O)OC)C1c1cccc(O)c1` (stereo unspecified), the IC50 was 14.1 µM.
`COc1ccc(OC)c(Nc2c3ccccc3nc3ccccc23)c1`: the IC50 was > 50 µM (inactive).
For `Nc1nc2nc(-c3ccc(OCc4ccccc4)cc3)cc(C(F)(F)F)n2n1`, the IC50 was 4.09 µM.
Regarding `Cc1cccc(N2C(=O)/C(=C/c3cccnc3)SC2=S)c1`, the IC50 was > 50 µM (inactive).
For the molecule `COc1ccc(OC(=O)C2CC(=O)N(c3ccc(C)cc3)C2)cc1` (stereo unspecified), the IC50 was > 50 µM (inactive).
On to `O=C(O)c1c2c(nc3ccccc13)/C(=C/c1ccc(OC(F)F)cc1)CCC2`, for which the IC50 was > 50 µM (inactive).
As for `Cc1ccc(N=Cc2cc3c(cc2[N+](=O)[O-])OCO3)cc1[N+](=O)[O-]`, the IC50 was > 50 µM (inactive).
As for `Clc1ccc(/C=C/c2ncc3ccccn23)cc1`, the figure is 12.5 µM; as for `CCCOC(=O)CSC1=C(C#N)C(c2ccccc2OC)C(C#N)C(=O)N1` (stereo unspecified), > 50 µM (inactive).
As for `Cn1c(=O)c2c(ncn2CCOc2ccc(F)cc2)n(C)c1=O`, the figure is > 50 µM (inactive); as for `N#C/C(=C/c1cn(CC(=O)O)c2ccccc12)C(=O)NCc1ccccc1`, > 50 µM (inactive).
As to `Cc1cc(Nc2ccccc2)nn1C(=O)c1ccccc1`, the IC50 is > 50 µM (inactive).
As for `C=CCN1CCc2cccc3c2[C@H]1Cc1ccc(O)c(O)c1-3`, the figure is > 50 µM (inactive).
As for `CCC1(C(=O)OC)NC(c2cccc(F)c2)C2C(=O)N(C)C(=O)C21` (stereo unspecified), the figure is > 50 µM (inactive); as for `Cc1ccc2nc(/C(C#N)=C/c3ccc(O)c(O)c3)[nH]c2c1`, > 50 µM (inactive); as for `CC(=O)Oc1cc2oc(=O)cc(C)c2cc1OC(C)=O`, 24.7 µM.
With `Clc1ccc(-c2nnc(SCc3nc4ccccc4[nH]3)o2)c(Cl)c1`, the IC50 was > 50 µM (inactive).
`Cc1c(N=Cc2c(O)n(Cc3ccco3)c(=O)c3ccccc23)c(=O)n(-c2ccccc2)n1C`: the IC50 is > 50 µM (inactive).
In the case of `Cn1c(=O)[nH]c2c(nc(-c3ccc(Cl)cc3)n2C)c1=O`, the IC50 is 26.1 µM.
On to `CCOc1ccc(NC(=O)CN2C(=O)COc3ccc(Cl)cc32)cc1`, for which the IC50 was > 50 µM (inactive).
On to `Cc1c(C=O)cnn1CCC(=O)O`, for which the IC50 is > 50 µM (inactive).
On to `C=C(C)Cn1c(SCC(=O)O)nnc1-c1ccc(OC)cc1`, for which the IC50 is > 50 µM (inactive).
Turning to `CCOc1ccc(OCc2ccc(C(=O)N(CC)CC)cc2)cc1`, the IC50 was > 50 µM (inactive).
Consider `N=C(N)SCc1nc2ccccc2c(=O)n1-c1ccccc1Cl`, for which the IC50 was > 50 µM (inactive).
In the case of `Oc1ccc(Br)cc1/C=N/n1c(-c2ccccc2)n[nH]c1=S`, the IC50 is > 50 µM (inactive).
As for `COc1ccccc1C#Cc1ccc2c(=O)c3ccccc3n(C)c2c1`, the IC50 was 0.698 µM.
Consider `O=C(O)c1ccccc1P(=O)(c1ccccc1)c1ccccc1`, for which the IC50 was > 50 µM (inactive).
Consider `COC(=O)CCC(=O)OC1(C)C(=O)C=C2C=C(C3CC3)N(Cc3ccc(OC)cc3)C=C2C1=O` (stereo unspecified), for which the IC50 was 26.7 µM.
Regarding `COc1cccc(NC(=O)CSc2ncc(S(=O)(=O)c3ccccc3)c(=O)[nH]2)c1`, the IC50 was > 50 µM (inactive).
With `Cc1ccc(S(=O)(=O)NCCN(CCNS(=O)(=O)c2ccc(C)cc2)S(C)(=O)=O)cc1`, the IC50 is > 50 µM (inactive).
As for `CC1(C)CCC(=O)C=C1Nc1ccc(F)c(Cl)c1`, the figure is > 50 µM (inactive); as for `O=C(c1cc2c(=O)n3ccccc3nc2s1)N1CCN(c2cccc(Cl)c2)CC1`, > 50 µM (inactive); as for `COc1ccc(CNC(=O)C2CC(=O)N(C3CCCCC3)C2)cc1` (stereo unspecified), > 50 µM (inactive).
Consider `C/C(N)=C(/C#N)C(=O)COc1ncnc2ccccc12`, for which the IC50 is > 50 µM (inactive).
Turning to `Cc1cccc(C2=NN(c3ccc(Br)cc3)[C@@H](C(=O)N3CCOC3=O)[C@@H]2c2ccc(F)cc2)c1`, the IC50 is 33.6 µM.
As for `CCOCCCn1c(=N)c(C(=O)NCc2ccc3c(c2)OCO3)cc2c(=O)n3cccc(C)c3nc21`, the figure is 14.9 µM; as for `Cn1c(=O)cc(N2CCCCC2)[nH]c1=O`, > 50 µM (inactive).
As for `Cc1ccc2cc(C#N)c(N3CCCN(S(=O)(=O)c4ccc(F)cc4)CC3)nc2c1`, the figure is 31.6 µM.
For the molecule `O=C(NC1CC1)c1ccc2c(Cl)c3c(nc2c1)CCCC3`, the IC50 was > 50 µM (inactive).
Consider `CCN(CC)c1ccc(/C=N/NC(=O)c2c(Cl)cnn2C)c(O)c1`, for which the IC50 is 6.2 µM.
In the case of `COc1ccccc1/C=C/c1nc(C#N)c(N(C)C)o1`, the IC50 was 17.4 µM.
For the molecule `CC(=O)Nc1ccc(S(=O)(=O)NCc2nc(-c3cccc(C)c3)no2)cc1`, the IC50 was > 50 µM (inactive).
For `CCCCn1c(N)c(N(CCOC)C(=O)CN2c3ccccc3CC2C)c(=O)[nH]c1=O` (stereo unspecified), the IC50 is > 50 µM (inactive).
Consider `COc1ccc(Br)cc1/C=C/C(=O)NC(=S)Nc1ccc(CN2CCOCC2)cc1`, for which the IC50 is > 50 µM (inactive).
For `CC1C2(C)OC(=N)C(C#N)(C(C)O2)C1(C#N)C#N` (stereo unspecified), the IC50 was 44.2 µM.
As for `c1ccc(-n2nnnc2-c2cnc(-c3cccnc3)nc2-c2cccs2)cc1`, the figure is > 50 µM (inactive); as for `CC1(C)CC(=O)CC(=Nc2ccc3[nH]c(=O)[nH]c3c2)C1`, > 50 µM (inactive); as for `COc1cc2cc(C(N)=O)c(N)nc2cc1OC`, 10.3 µM.
As to `Fc1ccccc1N1CCN(c2nc3ccccc3n3nnnc23)CC1`, the IC50 was 37.8 µM.
For the molecule `Cc1ccc(NC(=O)C2CCN(S(=O)(=O)c3ccc(Cl)c(C(F)(F)F)c3)CC2)nc1`, the IC50 was > 50 µM (inactive).
With `Cc1ccc(S(=O)(=O)c2cc3c(=O)n4cccc(C)c4nc3n(C3CCCCC3)c2=N)cc1`, the IC50 was 1.2 µM.
Regarding `COc1ccc(OCC(=O)NNc2c3ccccc3nc3ccccc23)cc1`, the IC50 is > 50 µM (inactive).
